[invAb] = inverted abasic unit; m = 2'-O-methyl; r = 2'-OH (RNA); f = 2'-fluoro
Legend:
[1] = test system: human STAT4 mRNA transcript; assay: STAT4 specificity screen in human A549 cells, STAT4 mRNA by quantitative RT-PCR; assay type: cell-based; conditions: three experiments, mean ± standard deviation
Description: A549 (human; ATCC cat# CCL-185): Cells were cultured at 37° C. in the presence of 5% CO2 and grown in Ham's F12K medium with 2 mM L-glutamine adjusted to contain 1.5 g/L sodium bicarbonate and supplemented with fetal bovine serum at a final concentration of 10%, 100 μg/mL of streptomycin, and 100 U/mL penicillin.
A series of probes and primers were used to detect the various mRNA transcripts of the genes of 13-Actin (human cell line only), and of STATE and GAPDH in mouse and human cell lines. All Taqman probes and primers for the experiments here-in described were supplied as pre-validated sets by Applied Biosystems, Inc. (see Table 2).
The assays were performed on an ABI 7900 instrument, according to the manufacturer's instructions. A TaqMan Gene Expression Master Mix (provided in the Cells-to-CTT™, Applied Biosystems, Cat #4399002) was used. The PCR reactions were carried out at 50° C. for 2 min, 95° C. for 20 min followed by 40 cycles at 95° C. for 15 secs and 60° C. for 1 min.
The expression level of the gene of interest and % knock-down was calculated using Comparative Ct method:
ΔΔCt=ΔCt(Target siNA)−ΔCt(NTC)
Relative expression level=2^−ΔΔCt
The non-targeting control siNA was, unless otherwise indicated, chosen as the value against which to calculate the % knock-down, because it is the most relevant control.
The siNAs from Table 4 were tested in human A549 cell line at a lower concentration (1 nM versus the original screening concentration of 10 nM) to determine the effect of the STATE siRNAs on the mRNA transcript of human STAT4.

STAT6 protein = assay: STAT6 Western Blot after 6-well plate transfection of A549 cells; assay type: cell-based, human; conditions: STAT6 protein band density, 72 h post-transfection, average ±S.D., n = 3
Description: A549 cells were plated in 6-well plates at final counts of 70,000 cells/well in 2 ml of complete growth media. Transfection was performed using 2.5 uL of RNAiMax per well. Final concentration of siNAs was 30 nM (screen) and 30, 0.3, and 0.003 nM (dose response study). Protein lysates were harvested 24, 48, and 72 hours post-transfection (screen) and 72 hours post-transfection (dose response study). Protein lysates were prepared using Cell Extraction Buffer (Invitrogen, cat# FNN0011) according to manufacturer's instructions. Protein concentration was measured using a Bradford Quick Start Kit (Bio-Rad, cat#500-0205).
The protein source for the Western Blot experiments were from transfection of A549 cells in a 6 well plate, as described above.
Protein samples were diluted 1:1 in 2× Laemmli buffer with 5% 13-mercapto-ethanol and incubated at 95° C. for 5 minutes. 40-50 ug of protein was loaded in each lane of 10% Tris-HCl gel. One lane was designated for MagicMark Protein Standard (Invitrogen # LC5602). The gel was run at 100V for approximately 2 hours. Protein was transferred to a PVDF membrane at 100V for 60 minutes. Once the transfer was finished, the membrane was blocked in 1% Casein in PBS (BioRad Cat#161-0783) for 1 hour on a plate rocker at room temperature followed by the overnight incubation at 4° C. with mouse monoclonal anti-STAT6 primary antibody (BD Biosciences, cat#611291) diluted 1:500 in 1% Casein. On the next day, the blot was washed 4×5 minutes in PBST solution and incubated for 30 minutes at room temperature with goat anti-mouse secondary antibody (Pierce Biotechnology, cat#3 31430) diluted 1:20,000 in 1% Casein. Then, the blot was washed 4×5 minutes with PBST and incubated for 1 minute with ECL Western Blotting Substrate (Pierce Biotechnology, Cat#32106). The bands were visualized on the Bio-Rad VersaDoc Imager.
The protein bands were quantified by computing their density which is defined by the ratio between the total intensity of all pixels and the area of the rectangle drawn around each band (intensity/mm^2). The density was calculated by the BioRad software.
The level of protein was quantified using the Bio-Rad VersaDoc Imager according to the protocols of that piece of equipment. A pixel count was performed in each lane using an area of identical size. Each sample was then compared to the appropriate control treated sample and converted to a percent of protein remaining compared to control.
The effects of lead siNAs on STATE protein level were compared to the effects of the universal control using a two tail Student's T-test to obtain a P value. P<0.05 was considered significant.
The siNAs and control were tested were tested at doses of 30 nM, […]. Blots were then probed with a-STAT6 and α-tubulin antibodies. All samples were harvested 72 hours post-transfection. The ratios of the treatments were then compared to the ratio of the control group using an t-test assuming unequal variances.

| Substance | % KD STAT4 1 nM [1] | Density (Intensity/mm^2), 3 pM, 72 h (STAT6 protein) | Density (Intensity/mm^2), 300 pM, 72 h (STAT6 protein) | Density (Intensity/mm^2), 30 nM, 72 h (STAT6 protein) |
| --- | --- | --- | --- | --- |
| 29990-DC: STAT6 siNA duplex; sense SEQ ID NO: 44, antisense SEQ ID NO: 45; target GUGAAAGCCUGGUGGACAU, site 954 (sense GUGAAAGCCUGGUGGACAUTT; antisense AUGUCCACCAGGCUUUCACUU; sense: DNA at AGT, 2'-fluoro at CU, [invAb] at 5' end, 3' end, backbone not given here; antisense: sugars from the 5' end rrrfffmffmmmfffffmfmm, backbone not given here) [STAT6 siNA duplex; target GUGAAAGCCUGGUGGACAU, site 954] | −2.1 ± 25.7% | 50078.4 ± 5978.2 Intensity/mm^2 | 6192.2 ± 714.5 Intensity/mm^2 | 1134.6 ± 362.7 Intensity/mm^2 |
| 29997-DC: STAT6 siNA duplex; sense SEQ ID NO: 58, antisense SEQ ID NO: 59; target CUACCAUGGUGCCUUCUUA, site 2262 (sense CUACCAUGGUGCCUUCUUATT; antisense UAAGAAGGCACCAUGGUAGUU; sense: DNA at AGT, 2'-fluoro at CU, [invAb] at 5' end, 3' end, backbone not given here; antisense: sugars from the 5' end rrrmmmmmfmffmfmmfmmmm, backbone not given here) [STAT6 siNA duplex; target CUACCAUGGUGCCUUCUUA, site 2262] | 2.6 ± 25% | 49839.8 ± 2352.8 Intensity/mm^2 | 5732.4 ± 1189.0 Intensity/mm^2 | 3203.8 ± 1309.6 Intensity/mm^2 |
| 30008-DC: STAT6 siNA duplex; sense SEQ ID NO: 80, antisense SEQ ID NO: 81; target CUGCUCUGCUCAGAUGUGA, site 2549 (sense CUGCUCUGCUCAGAUGUGATT; antisense UCACAUCUGAGCAGAGCAGUU; sense: DNA at AGT, 2'-fluoro at CU, [invAb] at 5' end, 3' end, backbone not given here; antisense: sugars from the 5' end rrrfmfffmmmfmmmmfmmmm, backbone not given here) [STAT6 siNA duplex; target CUGCUCUGCUCAGAUGUGA, site 2549] | 16.4 ± 17% | 58808.1 ± 5023.9 Intensity/mm^2 | 8356.8 ± 2186.6 Intensity/mm^2 | 4254 ± 1579.4 Intensity/mm^2 |

From patent US20120035247A1, “RNA Interference Mediated Inhibition of Signal Transducer and Activator of Transcription 6 (STAT6) Gene Expression Using Short Interfering Nucleic Acid (siNA)” (Merck Sharp & Dohme Corp., priority 2009, published 2012)
